According to US20190328891A1, “MEDICAL PREPARATION WITH A CARRIER BASED ON HYALURONAN AND/OR DERIVATIVES THEREOF, METHOD OF PREPARATION AND USE THEREOF” (CONTIPRO A.S., priority 2016, published 2019):
Square brackets hold non-standard residues; d marks the D form. Nle = CCCC[C@H](N)C(=O)O

Experiments:
[1] = tested on: Primary human fibroblasts (NHDF); assay: In vitro cell adhesion on the fibre comprising RGD motif; assay type: cell-based; details: fibre of native HYA with bonded peptide; DiI stained NHDF, 10^5 cells; fluorescent microscope; monitored for 7 days of cultivation (FIG. 6)
Description: The fibre of native HYA comprising RGD motif, prepared according to the procedure described in Example 14, and control fibres were cut into 1 cm pieces and transferred onto a non-adhesive panel with 24 wells. Primary human fibroblasts (NHDF) were pre-marked with the fluorescent dye DiI (Exmax/Emmax 549/565) and inoculated, in the amount of 10^5 cells, into the wells filled with the tested samples. Then the panel was shaken by a shaker (5 hrs/160 rpm) to keep the cells in suspension, under cultivation conditions (37° C., 5% CO2). After 24 h of cultivation the fibres were transferred into a well with fresh cultivation medium. Then the cells were observed and detected by fluorescent microscope Nikon Ti-Eclipse with the use of TRITC filter (Exmax/Emmax, 549/565). The fibroblasts proliferation was monitored for 7 days of cultivation.

injured skin = details: rabbits, alginate bandage containing the peptide; in comparison with Ser-Ile-Lys-Val-Ala-Val and Val-Pro-Val-Ala-Pro-Gly anchored on alginate bandage; cited from earlier work

Row | Substance | adhesion and proliferation of human dermal fibroblasts on the fibre [1] | epithelization (injured skin) | volume of regenerated tissue (injured skin)
1 | H-Ahx-Ahx-Arg-Gly-Asp-Nle-O-HYA [H-Ahx-Ahx-Arg-Gly-Asp-Nle-OH] | did not support the cell adhesion |  | 
2 | H-Arg-Gly-Asp-Gly-Gly-Gly-Nle-O-HYA (H-RGDGGG[Nle]-{O‑hyaluronan}) [H-Arg-Gly-Asp-Gly-Gly-Gly-Nle-OH, RGD peptide linked to native hyaluronan fibre via triglycine linker] | did not support the cell adhesion |  | 
3 | H-Gly-Gly-Gly-Arg-Gly-Asp-Nle-O-HYA (H-GGGRGD[Nle]-{O‑hyaluronan}) [H-Gly-Gly-Gly-Arg-Gly-Asp-Nle-OH, peptide with triglycine and RGD anchored to native hyaluronan fibre] | did not support the cell adhesion |  | 
4 | Ser-Ile-Arg-Val-X-Val-X-Pro-Gly (where X=Ala or Gly) |  | significantly higher | larger
